Measurements: ChEMBL document CHEMBL5375995, “Discovery and Mechanistic Study of Novel Mycobacterium tuberculosis ClpP1P2 Inhibitors” (J Med Chem, 2023)
pEC50, pIC50: −log10 of the molar value. ≈ marks a conversion by molar mass, not a printed value. Calls of active or inactive are those of the source. The rule behind the calls is not given here.

Assays:
[1] = system: Mycolicibacterium smegmatis; assay: Antibacterial activity against wild-type Mycobacterium smegmatis mc2 155 harboring ClpP-tetoff mutant assessed as bacterial growth inhibition upto 512 uM incubated for 2 days in presence of ATc by Alamar blue staining based assay; type: functional, organism-based; conditions: time 2.0 day
[2] = system: Mycolicibacterium smegmatis; assay: Antibacterial activity against wild-type Mycobacterium smegmatis mc2 155 assessed as bacterial growth inhibition incubated for 2 days by Alamar blue staining based assay; type: functional; conditions: mc2 155, 48 h, time 2 day
[3] = Inhibition of N-terminal His6-SUMO-tagged Mycobacterium smegmatis ClpP1 (3 to 200 residues)/P2 (17 to 218 residues) expressed in Escherichia coli BL21(DE3) using Z-Gly-Gly-Leu-AM as substrate measured for 60 mins in presence of Bz-LL by fluorescence based assay; design: species or system Mycolicibacterium smegmatis
ClpP1P2 [4] = target: T1, ClpP1P2 (Mycobacterium tuberculosis (strain ATCC 25618 / H37Rv), UniProt P9WPC3+P9WPC5); assay: Inhibition of N-terminal His6-SUMO-tagged Mtb ClpP1 (7 to 200 residues)/ClpP2 (13 to 214 residues) complex expressed in Escherichia coli BL21(DE3) using FITC-casein as substrate measured for 1 hr in presence of Bz-LL/ATP by fluorescence based assay
T1 sequence (P9WPC5 whole entry, the tested form may be a part): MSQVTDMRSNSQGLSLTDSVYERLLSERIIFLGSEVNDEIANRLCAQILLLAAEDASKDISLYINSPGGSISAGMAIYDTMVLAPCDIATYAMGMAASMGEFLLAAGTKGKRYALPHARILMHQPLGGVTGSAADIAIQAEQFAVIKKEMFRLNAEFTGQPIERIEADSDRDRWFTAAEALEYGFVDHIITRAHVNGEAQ
T1 sequence (P9WPC3 whole entry, the tested form may be a part): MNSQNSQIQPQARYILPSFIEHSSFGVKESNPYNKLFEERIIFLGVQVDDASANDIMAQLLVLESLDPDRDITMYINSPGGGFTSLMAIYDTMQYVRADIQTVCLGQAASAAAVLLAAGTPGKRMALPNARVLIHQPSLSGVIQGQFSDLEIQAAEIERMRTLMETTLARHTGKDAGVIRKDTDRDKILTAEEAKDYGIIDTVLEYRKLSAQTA

[5] = (§1) Selectivity index, ratio of IC50 for full-length human ClpP complex ([…]) expressed in Escherichia coli BL21(DE3) using FITC-casein as substrate to IC50 for N-terminal His6-SUMO-tagged Mtb ClpP1 (7 to 200 residues)/ClpP2 (13 to 214 residues) complex expressed in Escherichia coli BL21(DE3) using Z-Gly-Gly-Leu-AMC as substrate
ClpP1P2 [6] = target: T1, ClpP1P2; assay: Inhibition of N-terminal His6-SUMO-tagged Mtb ClpP1 (7 to 200 residues)/ClpP2 (13 to 214 residues) complex expressed in Escherichia coli BL21(DE3) using GFP-ssrA as substrate incubated for 3 hrs in presence of Bz-LL/ATP by Coomassie blue staining based assay
[7] = system: Mycolicibacterium smegmatis; assay: Antibacterial activity against wild-type Mycobacterium smegmatis mc2 155 assessed as bacterial growth inhibition upto 512 uM incubated for 2 days in presence of ATc by Alamar blue staining based assay; type: functional, organism-based; conditions: time 2.0 day
[8] = Inhibition of N-terminal His6-SUMO-tagged Mycobacterium smegmatis ClpP1 (3 to 200 residues)/P2 (17 to 218 residues) expressed in Escherichia coli BL21(DE3)/C1 using Z-Gly-Gly-Leu-AM as substrate measured for 60 mins in presence of Bz-LL by fluorescence based assay; design: species or system Mycolicibacterium smegmatis
[9] = system: Mycobacterium tuberculosis; assay: Binding affinity to N-terminal His6-SUMO-tagged Mtb ClpP1 (7 to 200 residues)/ClpP2 (13 to 214 residues) complex expressed in Escherichia coli BL21(DE3) assessed as reduction in fluorescence intensity at 25 to 100 uM incubated for 30 mins in presence of Bz-LL by spectrophotometry relative to control; design: scale not given: the % may be the effect or the level left; conditions: dose 25-100 µM
[10] = as §1, with “Ac-WLA-AMC” for “FITC-casein”
ClpP1P2 [11] = target: T1, ClpP1P2; assay: Binding affinity to N-terminal His6-SUMO-tagged Mtb ClpP1 (7 to 200 residues)/ClpP2 (13 to 214 residues) complex expressed in Escherichia coli BL21(DE3) assessed as increase in thermal stability measured at 25 to 110 degreeC in presence of Bz-LL by DSF assay
[12] = system: Mycolicibacterium smegmatis; assay: Antibacterial activity against Mycobacterium smegmatis mc2 155 harboring ClpX knockout assessed as bacterial growth inhibition incubated for 2 days by Alamar blue staining based assay; type: functional; conditions: mc2 155, 48 h, time 2 day
[13] = target: T2, ClpP1P2 (Mycobacterium tuberculosis (strain ATCC 25618 / H37Rv)) (UniProt P9WPC5+P9WPC3); assay: Inhibition of N-terminal His6-SUMO-tagged Mtb ClpP1 (7 to 200 residues)/ClpP2 (13 to 214 residues) complex expressed in Escherichia coli BL21(DE3) using GFP-ssrA as substrate measured for 1 hr in presence of Bz-LL/ATP by fluorescence based assay
[14] = system: Mycobacterium tuberculosis; assay: Antibacterial activity against Mycobacterium tuberculosis H37Ra assessed as bacterial growth inhibition incubated for 24 hrs by broth microdilution method; type: functional
[15] = Inhibition of Staphylococcus aureus […] complex expressed in Escherichia coli BL21(DE3) using GFP-ssrA as substrate incubated for 3 hrs in presence of Bz-LL/ATP/ONC212 by Coomassie blue staining based assay
[16] = system: Mycolicibacterium smegmatis; assay: Antibacterial activity against Mycobacterium smegmatis mc2 155 harboring ClpC1 knockout assessed as bacterial growth inhibition incubated for 2 days by Alamar blue staining based assay; type: functional; conditions: mc2 155, 48 h, time 2 day
ClpP1P2 [17] = target: T1, ClpP1P2; assay: Inhibition of N-terminal His6-SUMO-tagged Mtb ClpP1 (7 to 200 residues)/ClpP2 (13 to 214 residues) complex expressed in Escherichia coli BL21(DE3) using Z-Gly-Gly-Leu-AMC as substrate measured for 60 mins in presence of Bz-LL by fluorescence based assay
[18] = target: ATP-dependent Clp protease ATP-binding subunit ClpC1 (Mycobacterium tuberculosis) (UniProt P9WPC9); assay: Inhibition of N-terminal His6-tagged full-length Mtb ClpC1 ATPase activity expressed in Escherichia coli BL21(DE3) at 100 uM in presence of PK/LDH/ATP/NADH by spectrophotometry
Sequence of ATP-dependent Clp protease ATP-binding subunit ClpC1 (Mycobacterium tuberculosis) (P9WPC9 whole entry, the tested form may be a part): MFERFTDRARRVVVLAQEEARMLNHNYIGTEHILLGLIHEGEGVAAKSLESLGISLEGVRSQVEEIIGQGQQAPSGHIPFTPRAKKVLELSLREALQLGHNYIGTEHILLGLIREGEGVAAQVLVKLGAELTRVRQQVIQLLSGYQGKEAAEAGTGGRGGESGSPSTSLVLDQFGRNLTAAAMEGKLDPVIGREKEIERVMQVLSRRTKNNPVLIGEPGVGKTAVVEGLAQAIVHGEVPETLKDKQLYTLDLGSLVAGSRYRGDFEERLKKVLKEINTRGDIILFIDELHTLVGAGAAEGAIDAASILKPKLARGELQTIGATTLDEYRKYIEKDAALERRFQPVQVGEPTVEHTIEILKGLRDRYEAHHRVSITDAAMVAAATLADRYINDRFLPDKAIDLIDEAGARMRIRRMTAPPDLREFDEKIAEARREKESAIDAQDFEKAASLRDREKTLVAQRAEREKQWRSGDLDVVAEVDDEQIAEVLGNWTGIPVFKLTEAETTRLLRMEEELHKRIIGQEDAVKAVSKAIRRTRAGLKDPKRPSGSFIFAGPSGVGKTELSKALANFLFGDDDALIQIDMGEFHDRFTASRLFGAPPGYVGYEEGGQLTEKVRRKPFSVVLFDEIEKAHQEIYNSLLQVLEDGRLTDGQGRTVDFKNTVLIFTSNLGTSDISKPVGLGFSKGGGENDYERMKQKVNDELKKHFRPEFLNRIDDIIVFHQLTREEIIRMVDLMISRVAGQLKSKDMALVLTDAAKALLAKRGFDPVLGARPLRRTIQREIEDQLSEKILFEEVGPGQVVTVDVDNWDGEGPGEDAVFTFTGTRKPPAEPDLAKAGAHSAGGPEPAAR

[19] = target: ATP-dependent Clp protease ATP-binding subunit ClpC1 (Mycobacterium tuberculosis) (UniProt P9WPC9); assay: Inhibition of N-terminal His6-tagged full-length Mtb ClpC1 creatine kinase activity expressed in Escherichia coli BL21(DE3) using creatine phosphate as substrate at 100 uM preincubated for 10 mins followed by substrate addition measured after 10 mins in presence of ADP by Kinase-Glo assay; conditions: time 20.0 min
[20] = target: T2, ClpP1P2 (Mycobacterium tuberculosis (strain ATCC 25618 / H37Rv)); assay: Binding affinity to N-terminal His6-SUMO-tagged Mtb ClpP1 (7 to 200 residues) expressed in Escherichia coli BL21(DE3) assessed as reduction in fluorescence intensity at 25 to 100 uM incubated for 30 mins in presence of Bz-LL by spectrophotometry relative to control; design: scale not given: the % may be the effect or the level left; conditions: dose 25-100 µM

## COc1cc2c(Oc3ccc4[nH]c(C)cc4c3F)ncnc2cc1OCCCN1CCC(c2ccc(C(N)=O)cc2)CC1
[1]
  growth inhibition (GI): Active
[2]
  MIC: > 439 µg/mL
[3]
  pIC50: 5.74
ClpP1P2 [4]
  pIC50: 5.05
[5]
  Ratio IC50: 18.4
ClpP1P2 [6]
  pIC50: < 4.00
[7]
  growth inhibition (GI): Active
[8]
  pIC50: 4.66
[9]
  Activity: 60%
[10]
  Ratio IC50: 12.1
ClpP1P2 [11]
  pEC50: 4.92
[12]
  MIC: 85.7 µg/mL (≈ 147 µM)
[13]
  inhibition: Active
[14]
  MIC: 12.5 µM (≈ 7.3 µg/mL)
[15]
  pIC50: 3.71
[16]
  MIC: 42.8 µg/mL (≈ 73.3 µM)
ClpP1P2 [17]
  pIC50: 5.59
[18]
  inhibition: inactive
[19]
  inhibition: inactive
[20]
  Activity: 10%
